Source: the supplement of paper PMC10307832

Key:
Assay in all cases: relative viability (nuclei count vs DMSO), 5 days (fraction); higher = more cells survive
[1] = tested on: COR-L23
Summary of the method: (§1)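 Medians of duplicate plates are given as relative viability. That measure is the nuclei count in treated wells divided by the count in vehicle wells. Counts were taken on 4× images of lung cancer cell lines in 1536-well plates, 5 days after pin-tool dosing the day after seeding with one drug alone or a fixed anchor-drug dose plus five library-drug doses (not always all listed) in √10 steps.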

[2] = tested on: SK-MES-1
Summary of the method: as §1

[3] = tested on: NCI-H23
Summary of the method: as §1

[4] = tested on: PC-14
Summary of the method: as §1

[5] = tested on: NCI-H661
Summary of the method: as §1

[6] = tested on: NCI-H1437
Summary of the method: as §1

[7] = tested on: UMC-11
Summary of the method: as §1

[8] = tested on: NCI-H2087
Summary of the method: as §1

[9] = tested on: HCC-827
Summary of the method: as §1

[10] = tested on: NCI-H2228
Summary of the method: as §1

[11] = tested on: NCI-H2085
Summary of the method: as §1

[12] = tested on: LCLC-103H
Summary of the method: as §1

[13] = tested on: H3255
Summary of the method: as §1

[14] = tested on: NCI-H1666
Summary of the method: as §1

[15] = tested on: LXF-289
Summary of the method: as §1

[16] = tested on: HCC-366
Summary of the method: as §1

[17] = tested on: HCC-15
Summary of the method: as §1

[18] = tested on: NCI-H1975
Summary of the method: as §1

[19] = tested on: PC-3 [JPC-3]
Summary of the method: as §1

[20] = tested on: NCI-H2342
Summary of the method: as §1

[21] = tested on: NCI-H2009
Summary of the method: as §1

[22] = tested on: LC-2-ad
Summary of the method: as §1

[23] = tested on: ABC-1
Summary of the method: as §1

`CCNC(=O)c1noc(-c2cc(C(C)C)c(O)cc2O)c1-c1ccc(CN2CCOCC2)cc1` [Luminespib] + N=C(N)NC(=N)NCCc1ccccc1 [Phenformin] (partner 250 µM) was tested, and the relative viability ([1]; first compound 0.002 µM) was 0.456, the relative viability ([1]; first compound 0.006325 µM) was 0.367 and the relative viability ([1]; first compound 0.02 µM) was 0.457. It also gave a relative viability ([1]; first compound 0.06325 µM) of 0.0668, a relative viability ([1]; first compound 0.2 µM) of 0.0674 and a relative viability ([2]; first compound 0.002 µM) of 0.642. For the same molecule, the relative viability ([2]; first compound 0.006325 µM) was 0.623, the relative viability ([2]; first compound 0.02 µM) was 0.702 and the relative viability ([2]; first compound 0.06325 µM) was 0.189. The relative viability ([2]; first compound 0.2 µM) was 0.193, the relative viability ([3]; first compound 0.002 µM) was 0.821 and the relative viability ([3]; first compound 0.006325 µM) was 0.727. For the same molecule, the relative viability ([3]; first compound 0.02 µM) was 0.611, the relative viability ([3]; first compound 0.06325 µM) was 0.359 and the relative viability ([3]; first compound 0.2 µM) was 0.16. It also gave a relative viability ([4]; first compound 0.002 µM) of 0.618, a relative viability ([4]; first compound 0.006325 µM) of 0.393 and a relative viability ([4]; first compound 0.02 µM) of 0.196. It also gave a relative viability ([4]; first compound 0.06325 µM) of 0.0634, a relative viability ([4]; first compound 0.2 µM) of 0.0788 and a relative viability ([5]; first compound 0.002 µM) of 0.262. It also gave a relative viability ([5]; first compound 0.006325 µM) of 0.279, a relative viability ([5]; first compound 0.02 µM) of 0.27 and a relative viability ([5]; first compound 0.06325 µM) of 0.241. It also gave a relative viability ([5]; first compound 0.2 µM) of 0.191, a relative viability ([6]; first compound 0.002 µM) of 0.325 and a relative viability ([6]; first compound 0.006325 µM) of 0.3. The relative viability ([6]; first compound 0.02 µM) was 0.358, the relative viability ([6]; first compound 0.06325 µM) was 0.173 and the relative viability ([6]; first compound 0.2 µM) was 0.154. The relative viability ([7]; first compound 0.002 µM) was 0.346, the relative viability ([7]; first compound 0.006325 µM) was 0.338 and the relative viability ([7]; first compound 0.02 µM) was 0.291. The relative viability ([7]; first compound 0.06325 µM) was 0.213, the relative viability ([7]; first compound 0.2 µM) was 0.168 and the relative viability ([8]; first compound 0.002 µM) was 0.493. It also gave a relative viability ([8]; first compound 0.006325 µM) of 0.362, a relative viability ([8]; first compound 0.02 µM) of 0.267 and a relative viability ([8]; first compound 0.06325 µM) of 0.136. It also gave a relative viability ([8]; first compound 0.2 µM) of 0.115, a relative viability ([9]; first compound 0.002 µM) of 0.385 and a relative viability ([9]; first compound 0.006325 µM) of 0.384. It also gave a relative viability ([9]; first compound 0.02 µM) of 0.369, a relative viability ([9]; first compound 0.06325 µM) of 0.281 and a relative viability ([9]; first compound 0.2 µM) of 0.141. For the same molecule, the relative viability ([10]; first compound 0.002 µM) was 0.314, the relative viability ([10]; first compound 0.006325 µM) was 0.288 and the relative viability ([10]; first compound 0.02 µM) was 0.115. For the same molecule, the relative viability ([10]; first compound 0.06325 µM) was 0.102, the relative viability ([10]; first compound 0.2 µM) was 0.0912 and the relative viability ([11]; first compound 0.002 µM) was 0.807. The relative viability ([11]; first compound 0.006325 µM) was 0.713, the relative viability ([11]; first compound 0.02 µM) was 0.408 and the relative viability ([11]; first compound 0.06325 µM) was 0.221. It also gave a relative viability ([11]; first compound 0.2 µM) of 0.225, a relative viability ([12]; first compound 0.002 µM) of 0.322 and a relative viability ([12]; first compound 0.006325 µM) of 0.361. The relative viability ([12]; first compound 0.02 µM) was 0.351, the relative viability ([12]; first compound 0.06325 µM) was 0.353 and the relative viability ([12]; first compound 0.2 µM) was 0.188. The relative viability ([13]; first compound 0.002 µM) was 0.328, the relative viability ([13]; first compound 0.006325 µM) was 0.347 and the relative viability ([13]; first compound 0.06325 µM) was 0.319. For the same molecule, the relative viability ([13]; first compound 0.2 µM) was 0.187, the relative viability ([14]; first compound 0.002 µM) was 0.583 and the relative viability ([14]; first compound 0.006325 µM) was 0.533. It also gave a relative viability ([14]; first compound 0.02 µM) of 0.574, a relative viability ([14]; first compound 0.06325 µM) of 0.532 and a relative viability ([14]; first compound 0.2 µM) of 0.538. For the same molecule, the relative viability ([15]; first compound 0.002 µM) was 0.429, the relative viability ([15]; first compound 0.006325 µM) was 0.482 and the relative viability ([15]; first compound 0.02 µM) was 0.593. The relative viability ([15]; first compound 0.06325 µM) was 0.163, the relative viability ([15]; first compound 0.2 µM) was 0.0721 and the relative viability ([16]; first compound 0.002 µM) was 0.686. It also gave a relative viability ([16]; first compound 0.006325 µM) of 0.59, a relative viability ([16]; first compound 0.02 µM) of 0.697 and a relative viability ([16]; first compound 0.06325 µM) of 0.0486. For the same molecule, the relative viability ([16]; first compound 0.2 µM) was 0.0355, the relative viability ([17]; first compound 0.002 µM) was 0.429 and the relative viability ([17]; first compound 0.006325 µM) was 0.405. It also gave a relative viability ([17]; first compound 0.02 µM) of 0.311, a relative viability ([17]; first compound 0.06325 µM) of 0.162 and a relative viability ([17]; first compound 0.2 µM) of 0.114. The relative viability ([18]; first compound 0.002 µM) was 0.401, the relative viability ([18]; first compound 0.006325 µM) was 0.37 and the relative viability ([18]; first compound 0.02 µM) was 0.169. The relative viability ([18]; first compound 0.06325 µM) was 0.118, the relative viability ([18]; first compound 0.2 µM) was 0.118 and the relative viability ([19]; first compound 0.002 µM) was 0.463. The relative viability ([19]; first compound 0.006325 µM) was 0.457, the relative viability ([19]; first compound 0.02 µM) was 0.462 and the relative viability ([19]; first compound 0.06325 µM) was 0.472. The relative viability ([19]; first compound 0.2 µM) was 0.242, the relative viability ([20]; first compound 0.002 µM) was 0.549 and the relative viability ([20]; first compound 0.006325 µM) was 0.581. The relative viability ([20]; first compound 0.02 µM) was 0.454, the relative viability ([20]; first compound 0.06325 µM) was 0.606 and the relative viability ([20]; first compound 0.2 µM) was 0.355. For the same molecule, the relative viability ([21]; first compound 0.002 µM) was 0.543, the relative viability ([21]; first compound 0.006325 µM) was 0.44 and the relative viability ([21]; first compound 0.02 µM) was 0.487. It also gave a relative viability ([21]; first compound 0.06325 µM) of 0.0851, a relative viability ([21]; first compound 0.2 µM) of 0.103 and a relative viability ([22]; first compound 0.002 µM) of 0.531. For the same molecule, the relative viability ([22]; first compound 0.006325 µM) was 0.497, the relative viability ([22]; first compound 0.02 µM) was 0.551 and the relative viability ([22]; first compound 0.06325 µM) was 0.25. It also gave a relative viability ([22]; first compound 0.2 µM) of 0.231, a relative viability ([23]; first compound 0.002 µM) of 0.223 and a relative viability ([23]; first compound 0.006325 µM) of 0.272. The relative viability ([23]; first compound 0.02 µM) was 0.241, the relative viability ([23]; first compound 0.06325 µM) was 0.2 and the relative viability ([23]; first compound 0.2 µM) was 0.233.
